Test results reported in US6545009B1, “Retinoid-related receptor function regulating agent” (Takeda Chemical Industries, Ltd., priority 1998, dated 2003).

Columns and labels:
PPARγ-RXRα heterodimer = target: T1, PPARγ-RXRα heterodimer (Homo sapiens, UniProt P19793+P37231); experiment: PPARγ-RXRα heterodimer ligand activity (luciferase reporter in PPARγ:RXRα:4ERPP/CHO-K1 cells); format: cell-based; conditions: for EC50: luciferase fold induction, 48 hours
T1 construct: expressed in transfected cells; host or cells: CHO-K1
T1 sequence (P37231 1-477 isoform P37231-2): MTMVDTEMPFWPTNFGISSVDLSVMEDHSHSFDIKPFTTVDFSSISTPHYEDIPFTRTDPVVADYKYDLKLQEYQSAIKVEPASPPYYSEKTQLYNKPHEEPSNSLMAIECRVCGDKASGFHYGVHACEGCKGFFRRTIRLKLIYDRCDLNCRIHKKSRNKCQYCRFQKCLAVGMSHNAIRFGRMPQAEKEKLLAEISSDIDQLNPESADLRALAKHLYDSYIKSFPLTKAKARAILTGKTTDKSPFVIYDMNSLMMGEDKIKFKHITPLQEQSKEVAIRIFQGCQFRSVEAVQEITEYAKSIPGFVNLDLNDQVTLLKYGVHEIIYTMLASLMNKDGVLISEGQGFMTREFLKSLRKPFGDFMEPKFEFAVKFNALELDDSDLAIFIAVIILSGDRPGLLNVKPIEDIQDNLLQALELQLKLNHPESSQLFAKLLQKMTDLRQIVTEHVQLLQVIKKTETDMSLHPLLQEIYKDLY
T1 sequence (P19793 1-462): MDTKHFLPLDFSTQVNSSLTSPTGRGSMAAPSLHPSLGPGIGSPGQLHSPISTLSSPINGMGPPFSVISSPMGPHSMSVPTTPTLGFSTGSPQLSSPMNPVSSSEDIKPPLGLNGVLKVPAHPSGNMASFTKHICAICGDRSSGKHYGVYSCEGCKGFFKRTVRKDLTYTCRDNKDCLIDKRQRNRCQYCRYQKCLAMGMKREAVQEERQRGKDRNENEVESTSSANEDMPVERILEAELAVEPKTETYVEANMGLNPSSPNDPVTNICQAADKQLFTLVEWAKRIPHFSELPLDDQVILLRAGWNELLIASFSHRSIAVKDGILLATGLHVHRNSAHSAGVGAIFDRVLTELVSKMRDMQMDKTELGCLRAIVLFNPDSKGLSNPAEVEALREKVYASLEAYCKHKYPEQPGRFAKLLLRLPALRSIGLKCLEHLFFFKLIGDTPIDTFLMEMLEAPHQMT
Method: (§1) PPAR γ:RXR α:4ERPP/CHO-K1 cells obtained in Reference Example 5 were cultured in HAM F12 medium (produced by NISSUI SEIYAKU) containing 10% Fetal bovine serum (produced by Life Technologies, Inc., USA) and then inoculated to a 96-well white plate (produced by Corning Costar Corporation, USA) at the density of 2×10^4 cells/well, and cultured in a CO2 gas incubator at 37° C. overnight.
(§2) After washing the 96 well white plate with PBS (Phosphate-buffered saline), 90 μl of HAM F12 medium containing 0.1% fatty acid-free bovine serum albumin (BSA) and 10 μl of test compound were added to each well, and the plate was cultured in a CO2 gas incubator at 37° C. for 48 hours. After removing the medium, 40 μl of PIKKAGENE 7.5 (produced by Wako Pure Chemical Industries, Ltd.) was added to the well. After stirring, the luciferase activity was determined using Lumistar (produced by BMG Labtechnologies GmbH, Germany).
(§3) A fold induction was calculated based on the luciferase activity of each test compound by estimating the luciferase activity in the non-treatment group as 1. The values of the test compound concentration and the fold induction were used to calculate the EC50 values, the effective concentration of a test compound for 50% of the maximum fold induction, by using PRISM 2.01 (produced by GraphPad Software Inc. USA).
as §1, with “PPARγ:RXRα:4ERPP/CHO-K1” for “PPAR γ:RXR α:4ERPP/CHO-K1”, “Reference.” for “Reference”
as §2, with “7.5 produced” for “7.5 (produced”, “Labtechnologies Gmbh,” for “Labtechnologies GmbH,”
as §3, with “maximum” for “maximum fold”, “USA). The results are shown in [Table 1].” for “USA).”

KKA^y mice = experiment: Hypoglycemic and hypolipidemic (hypotriglyceridemic) activities in mice; format: in vivo; conditions: four days; for Hypoglycemic effect (%) / Hypolipidemic effect (%): 0.01% in powdered diet; for Hypoglycemic effect (%): reduction rate of plasma glucose compared with non-treatment group; for Hypolipidemic effect (%): reduction rate of plasma triglyceride compared with non-treatment group
Method: Test compound was mixed in a powdered diet (CE-2, Japan Clea) at the concentration of 0.01%, and freely given to KKA^y mice (9 to 12 weeks old, 5 mice in a group) a model of obese and non-insulin-dependent diabetes mellitus (Type 2 diabetes mellitus), for four days. […] During the experimental period, water was given freely Blood was obtained from orbital venous plexus, and glucose and triglyceride levels in plasma were determined enzymatically using L type Wako Glu2 (Wako Pure Chemical Industries, Ltd.) and L type Wako TG·H (Wako Pure Chemical Industries, Ltd.), respectively.
Test compound was mixed in a powdered diet (CE-2, Japan Clea) at the concentration of 0.01%, and freely given to KKA^y mice (9 to 12 weeks old, 5 mice in a group), a model of obese and.non-insulin-dependent diabetes mellitus (Type 2 diabtes mellitus), for four days. During this period, water was given freely. Blood was obtained from orbital venous plexus, and glucose and triglyceride levels in plasma were determined enzymatically using L type Wako Glu2 (Wako Pure Chemical Industries, Ltd.) and L type Wako TG·H (Wako Pure Chemical Industries, Ltd.), respectively.
The value of each treatment group is represented as reduction rate (%) compared with the non-treatment group, which is shown in [Table 2].

| SMILES | EC50 (PPARγ-RXRα heterodimer) | melting point | other results |
| --- | --- | --- | --- |
| O=C(O)c1ccc(-c2nc(-c3ccc(C(F)(F)F)cc3)co2)cc1 [Example 9, 4-[4-(4-trifluoromethylphenyl)-2-oxazolyl]benzoic acid] | 23 nM | 258 to 259 °C | Hypoglycemic effect (%) (KKA^y mice): 51%; Hypolipidemic effect (%) (KKA^y mice): 67% |
| O=C(O)c1ccc(-c2nc(-c3ccc(Cl)cc3)cs2)cc1 [Example 52, 4-[4-(4-chlorophenyl)-2-thiazolyl]benzoic acid] | – | – | PPARγ-RXRα heterodimer ligand activity (PPARγ-RXRα heterodimer; at a concentration ranging from 10^−5 M to 10^−9 M): potent; hypoglycemic activity (KKA^y mice; 0.01% in diet, dose ranging from 0.1 to 50 mg/kg/day, plasma glucose): potent; hypolipidemic (hypotriglyceridemic) activity (KKA^y mice; 0.01% in diet, dose ranging from 0.1 to 50 mg/kg/day, plasma triglyceride): potent |
| O=C(O)c1ccc(-c2nc(-c3ccc(C(F)(F)F)cc3)cs2)cc1 [Example 55, 4-[4-(4-trifluoromethylphenyl)-2-thiazolyl]benzoic acid] | 68 nM | 164 to 165 °C | Hypoglycemic effect (%) (KKA^y mice): 70%; Hypolipidemic effect (%) (KKA^y mice): 86% |
| O=C(O)c1ccc(-c2nc(-c3ccc(OC(F)(F)F)cc3)cs2)cc1 [Example 64, 4-[4-(4-trifluoromethoxylphenyl)-2-thiazolyl]benzoic acid] | 310 nM | 245 to 246 °C | Hypoglycemic effect (%) (KKA^y mice): 68%; Hypolipidemic effect (%) (KKA^y mice): 88% |
| Cc1cc(-c2csc(-c3cccc(C(=O)O)c3)n2)c(C)o1 [Example 72, 3-[4-(2,5-dimethyl-3-furyl)-2-thiazolyl]benzoic acid] | 0.6 nM | 174 to 175 °C | – |
| O=C(O)c1cccc(-c2nc(-c3cc(Cl)sc3Cl)cs2)c1 [Example 95, 3-[4-(2,5-dichloro-3-thienyl)-2-thiazolyl]benzoic acid] | 100 nM | 241 to 242 °C | – |
| CCOc1ccc(-c2csc(-c3cccc(C(=O)O)c3)n2)cc1 [Example 96, 3-[4-(4-ethoxyphenyl)-2-thiazolyl]benzoic acid] | 1.9 nM | – | – |
| CC(C)c1ccc(-c2csc(-c3cccc(C(=O)O)c3)n2)cc1 [Example 100, 3-[4-(4-isopropylphenyl)-2-thiazolyl]benzoic acid] | 5.1 nM | 214 to 215 °C | – |
| Br.CCOC(=O)c1ccc(-c2csc(-c3ccncc3)n2)cc1 [Example 105, ethyl 4-[2-(4-pyridyl)-4-thiazolyl)benzoate hydrobromide] | – | 247 to 248 °C | – |
| O=C(O)c1ccc(-c2cnc(-c3ccc(C(F)(F)F)cc3)s2)cc1 [Example 113, 4-[2-(4-trifluoromethylphenyl)-5-thiazolyl]benzoic acid] | 60 nM | – | Hypoglycemic effect (%) (KKA^y mice): 45%; Hypolipidemic effect (%) (KKA^y mice): 53% |
| O=C(O)c1ccc(-c2ncc(-c3ccc(Cl)cc3)s2)cc1 [Example 114, 4-[5-(4-chlorophenyl)-2-thiazolyl]benzoic acid] | – | > 300 °C | – |
| O=C(O)c1ccc(-c2csc(-c3ccccc3)n2)cc1 [Reference Example 9, 4-(2-phenyl-4-thiazolyl]benzoic acid] | – | 245 to 248 °C | – |
| O=C(O)c1ccc(-c2csc(-c3ccc(Cl)cc3)n2)cc1 [compound 10, 4-[2-(4-chlorophenyl)-4-thiazolyl]benzoic acid] | – | 284 to 285 °C | – |
| O=C(O)c1cccc(-c2nc(-c3ccc(Cl)cc3)cs2)c1 [compound 12, 3-[4-(4-chlorophenyl)-2-thiazolyl]benzoic acid] | – | 265 to 266 °C | – |

Further lines, with some results ahead:

| EC50 (PPARγ-RXRα heterodimer) | melting point | SMILES | other results |
| --- | --- | --- | --- |
| 92 nM | – | O=C(O)c1ccc(-c2nc(-c3ccc(Cl)cc3)co2)cc1 [Example 8, 4-[4-(4-chlorophenyl)-2-oxazolyl]benzoic acid] | – |
| – | 142 to 143 °C | CCOC(=O)c1ccc(-c2cnc(-c3ccc(C(F)(F)F)cc3)o2)cc1 [Example 107, ethyl 4-[2-(4-trifluoromethylphenyl)-5-oxazolyl]benzoate] | – |
| – | 195 to 197 °C | CCOC(=O)c1ccc(-c2ncc(-c3ccc(Cl)cc3)o2)cc1 [Example 108, ethyl 4-[5-(4-chlorophenyl)-2-oxazolyl]benzoate] | – |
| 48 nM | 253 to 254 °C | O=C(O)c1ccc(-c2cnc(-c3ccc(C(F)(F)F)cc3)o2)cc1 [Example 110, 4-[2-(4-trifluoromethylphenyl)-5-oxazolyl]benzoic acid] | Hypoglycemic effect (%) (KKA^y mice): 73%; Hypolipidemic effect (%) (KKA^y mice): 87% |
| – | 167 to 168 °C | CCOC(=O)c1ccc(-c2ncc(-c3ccc(Cl)cc3)s2)cc1 [Example 112, ethyl 4-[5-(4-chlorophenyl)-2-thiazolyl]benzoate] | – |
| – | 268 to 270 °C | O=C(O)c1ccc(-c2cnc(-c3ccc(Cl)cc3)o2)cc1 [compound 13, 4-[2-(4-chlorophenyl)-5-oxazolyl]benzoic acid] | – |
